Data as given in PubChem BioAssay AID1963434 (Molecular Pharmacology Branch, DTP, NCI, 2024).

Test system: 755483-174-R-J1-PDC complex spheroid growth, percent test/control
Assay: Anticancer human tumor 755483-174-R-J1-PDC patient-derived rhabdomyosarcoma cell line growth inhibition [Asc]
Settings: for IC50: curve of first compound; for viability, T/C: stronger effect = lower value
How it was run: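 Complex solid-tumor spheroids incorporating human endothelial and mesenchymal stem cells received single agents or combinations over half-log dilution ranges anchored to clinical Cmax.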
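Further: spheroids exposed to compounds for seven days before readout.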

SMILES: Cc1nc(N2CCC3(CC2)COC(C)C3N)c(CO)nc1Sc1ccnc(N)c1Cl (stereo not given) + CCN1C(C(=O)NC23CCC(C(=O)O)(CC2)CC3)C(c2cccc(Cl)c2F)C2(C(=O)Nc3cc(Cl)ccc32)C12CCCCC2
- IC50 (second compound 0.03 µM): 442 nM
- IC50 (second compound 0.0949 µM): 371 nM
- IC50 (second compound 0.3 µM): 387 nM
- IC50 (second compound 0.949 µM): 232 nM
- IC50 (second compound 3 µM): 315 nM
- viability, T/C (second compound 0.03 µM, first compound 0.00949 µM): 111%
- viability, T/C (second compound 0.03 µM, first compound 0.03 µM): 93.4%
- viability, T/C (second compound 0.03 µM, first compound 0.0949 µM): 80.7%
- viability, T/C (second compound 0.03 µM, first compound 0.3 µM): 58.6%
- viability, T/C (second compound 0.03 µM, first compound 0.949 µM): 33.4%
- viability, T/C (second compound 0.03 µM, first compound 3 µM): 19.6%
- viability, T/C (second compound 0.0949 µM, first compound 0.00949 µM): 113%
- viability, T/C (second compound 0.0949 µM, first compound 0.03 µM): 106%
- viability, T/C (second compound 0.0949 µM, first compound 0.0949 µM): 106%
- viability, T/C (second compound 0.0949 µM, first compound 0.3 µM): 52.9%
- viability, T/C (second compound 0.0949 µM, first compound 0.949 µM): 39.2%
- viability, T/C (second compound 0.0949 µM, first compound 3 µM): 21.1%
- viability, T/C (second compound 0.3 µM, first compound 0.00949 µM): 89.5%
- viability, T/C (second compound 0.3 µM, first compound 0.03 µM): 87.6%
- viability, T/C (second compound 0.3 µM, first compound 0.0949 µM): 62.1%
- viability, T/C (second compound 0.3 µM, first compound 0.3 µM): 51.6%
- viability, T/C (second compound 0.3 µM, first compound 0.949 µM): 42.5%
- viability, T/C (second compound 0.3 µM, first compound 3 µM): 18.5%
- viability, T/C (second compound 0.949 µM, first compound 0.00949 µM): 105%
- viability, T/C (second compound 0.949 µM, first compound 0.03 µM): 82.9%
- viability, T/C (second compound 0.949 µM, first compound 0.0949 µM): 84.1%
- viability, T/C (second compound 0.949 µM, first compound 0.3 µM): 40.1%
- viability, T/C (second compound 0.949 µM, first compound 0.949 µM): 24.9%
- viability, T/C (second compound 0.949 µM, first compound 3 µM): 27.1%
- viability, T/C (second compound 3 µM, first compound 0.00949 µM): 111%
- viability, T/C (second compound 3 µM, first compound 0.03 µM): 82.9%
- viability, T/C (second compound 3 µM, first compound 0.0949 µM): 71.9%
- viability, T/C (second compound 3 µM, first compound 0.3 µM): 50.1%
- viability, T/C (second compound 3 µM, first compound 0.949 µM): 34.3%
- viability, T/C (second compound 3 µM, first compound 3 µM): 21.1%

SMILES: O=C(c1cc(Cc2n[nH]c(=O)c3ccccc23)ccc1F)N1CCN(C(=O)C2CC2)CC1 + CNC(C)C(=O)NC1CN(S(=O)(=O)c2cccc(S(=O)(=O)N3CCC4CCC(C(=O)NC(c5ccccc5)c5ccccc5)N4C(=O)C(NC(=O)C(C)NC)C3)c2)CCC2CCC(C(=O)NC(c3ccccc3)c3ccccc3)N2C1=O
- IC50 (second compound 0.01 µM): < 31.6 nM
- IC50 (second compound 0.0316 µM): < 31.6 nM
- IC50 (second compound 0.1 µM): < 31.6 nM
- IC50 (second compound 0.316 µM): < 31.6 nM
- IC50 (second compound 1 µM): < 31.6 nM
- viability, T/C (second compound 0.01 µM, first compound 0.0316 µM): 41.7%
- viability, T/C (second compound 0.01 µM, first compound 0.1 µM): 41.1%
- viability, T/C (second compound 0.01 µM, first compound 0.316 µM): 34.5%
- viability, T/C (second compound 0.01 µM, first compound 1 µM): 27.5%
- viability, T/C (second compound 0.01 µM, first compound 3.16 µM): 24.1%
- viability, T/C (second compound 0.01 µM, first compound 10 µM): 12%
- viability, T/C (second compound 0.0316 µM, first compound 0.0316 µM): 35.3%
- viability, T/C (second compound 0.0316 µM, first compound 0.1 µM): 34.3%
- viability, T/C (second compound 0.0316 µM, first compound 0.316 µM): 24.3%
- viability, T/C (second compound 0.0316 µM, first compound 1 µM): 21.3%
- viability, T/C (second compound 0.0316 µM, first compound 3.16 µM): 17.9%
- viability, T/C (second compound 0.0316 µM, first compound 10 µM): 9.95%
- viability, T/C (second compound 0.1 µM, first compound 0.0316 µM): 27.2%
- viability, T/C (second compound 0.1 µM, first compound 0.1 µM): 40.2%
- viability, T/C (second compound 0.1 µM, first compound 0.316 µM): 28.5%
- viability, T/C (second compound 0.1 µM, first compound 1 µM): 23.6%
- viability, T/C (second compound 0.1 µM, first compound 3.16 µM): 15.5%
- viability, T/C (second compound 0.1 µM, first compound 10 µM): 7.57%
- viability, T/C (second compound 0.316 µM, first compound 0.0316 µM): 29.5%
- viability, T/C (second compound 0.316 µM, first compound 0.1 µM): 40.1%
- viability, T/C (second compound 0.316 µM, first compound 0.316 µM): 23.3%
- viability, T/C (second compound 0.316 µM, first compound 1 µM): 15.7%
- viability, T/C (second compound 0.316 µM, first compound 3.16 µM): 8.99%
- viability, T/C (second compound 0.316 µM, first compound 10 µM): 3.81%
- viability, T/C (second compound 1 µM, first compound 0.0316 µM): 16.7%
- viability, T/C (second compound 1 µM, first compound 0.1 µM): 17.2%
- viability, T/C (second compound 1 µM, first compound 0.316 µM): 6.88%
- viability, T/C (second compound 1 µM, first compound 1 µM): 6.73%
- viability, T/C (second compound 1 µM, first compound 3.16 µM): 8.78%
- viability, T/C (second compound 1 µM, first compound 10 µM): 3.7%
